Experimental findings from patent US4025555A, “Aromatic amidines as antiviral agents in animals” (Pfizer Inc., priority 1976, dated 1977) are described below.

Molecules are shown by their SMILES. “And” between values parts separate entries of the source, which are not always exact repeats. Identical values can stand only once.

The subject of one experiment is circulating interferon.
Experiment: not given
Further details: species or system female Swiss mice. Particulars: mouse, in vivo, ip.
For the compound `CCCCCCCCCCCCCCCCN(CCCCCCCCCCCCCCCC)Cc1cccc(C(=N)Nc2ccc(O)c(C)c2)c1` [Example 30], the “Plasma Interferon Levels” value was 66 units/ml. and 87 units/ml. and 61 units/ml. and 64 units/ml.

The subject of another experiment is encephalomyocarditis (EMC) virus. Briefly: Antiviral activity in mice challenged with lethal dose of encephalomyocarditis (EMC) virus (survival, relative survival, ED50). In kind it is in vivo, female albino mice. Conditions: Mus musculus, ip, 240 h; as mg. dihydrochloride salt; i.p. 18-24 h before EMC virus challenge; day 10; read-out: ED50. As to the method: The antiviral activity of the compounds of formula I is determined by the following procedure. The test compound is administered to mice by the intraperitoneal route eighteen to twenty-four hours prior to challenging them with a lethal dose of encephalomyocarditis (EMC) virus. The survival rate is determined ten days after challenge and an ED50 [dosage level (mg of compound/kg body weight) required to obtain a fifty percent survival rate] calculated. The procedure in which the drug is given eighteen to twenty-four hours before, and at a distinctly different site from, virus injection is designed to eliminate local effects between drug and virus and identify only those compounds which produce a systemic antiviral response.
Three groups of ten female albino mice (20-25 g. body weight) were given single 0.5 ml. intraperitoneal injections containing dosage levels of 1.5, 5, and 15 mg. of the named compound/kg. body weight, respectively. A fourth control group was given no such injection. Eighteen to twenty-four hours later all four groups were challenged with a 0.2 ml. subcutaneous injection containing 20-30 times the LD50, the dosage level causing a 50% death rate in ten days, of encephalomyocarditis (EMC) virus. The following survival data were recorded for the following ten days:
Antiviral activity is expressed as the relative survival (Sr) in experimental groups compared to the controls on the tenth day after challenge. Sr is defined by the formula [formula] wherein Sr = relative survival […]
Sx = percent survival after ten days in experimental group xi = number of survivors on the ith day in experimental group ei = number of survivors on the ith day in control group
The ED50 [dosage level (mg. of compound/kg. body weight) required to obtain a fifty percent survival rate] is determined graphically by plotting Sr (ordinate) vs. 1n dosage level (abscissa) and then fitting the points with a line of predetermined slope by least squares. The dosage level at which this fitted line has an ordinate of 50 is equivalent to the ED50.
In like manner to that described in Example 113 the antiviral activity was determined for the compounds listed below.
`CCCCCCCCCCCCCCCCN(CCCCCCCCCCCCCCCC)Cc1cccc(C(=N)N)c1` [Example 2, m-[N,N-Di-(n-hexadecyl)aminomethyl]-benzamidine]: the ED50 was 4.7 mg/kg. Take `CCCCCCCCCCCCCCCCN(CCCCCCCCCCCCCCCC)Cc1cccc(C(=N)NC(=O)C(=O)O)c1` [Example 4, m-[N,N-Di(n-hexadecyl)aminomethyl]-N-oxoacetic acid-benzamidine]: the median effective dose (ED50) came out at 9.9 mg/kg. Regarding `CCCCCCCCCCCCCCCCN(CCCCCCCCCCCCCCCC)Cc1cccc(C(=N)Nc2ccc(OC)cc2)c1` [Example 6, m-[N,N-Di(n-hexadecyl)aminomethyl]-N-(p-methoxyphenyl)-benzamidine], the ED50 amounted to 5.3 mg/kg. With `CCCCCCCCCCCCCCCCN(CCCCCCCCCCCCCCCC)Cc1cccc(C(=N)Nc2ccccc2)c1` [Example 7], the ED50 turned out to be 12.3 mg/kg. Regarding `CCCCCCCCCCCCCCCCN(CCCCCCCCCCCCCCCC)Cc1cccc(C(=N)Nc2ccc(Cl)cc2)c1` [Example 8], the ED50 turned out to be 16 mg/kg. `CCCCCCCCCCCCCCCCN(CCCCCCCCCCCCCCCC)Cc1cccc(C(=N)Nc2ccc(C)cc2)c1` [Example 9]: the ED50 worked out at 7.7 mg/kg. Turning to `CCCCCCCCCCCCCCCCN(CCCCCCCCCCCCCCCC)Cc1cccc(C(=N)Nc2ccccn2)c1` [Example 10], the ED50 amounted to 49.3 mg/kg.

As to `CCCCCCCCCCCCCCCCN(CCCCCCCCCCCCCCCC)Cc1cccc(C(=N)Nc2ccc(Cl)cc2Cl)c1` [Example 11], the median effective dose (ED50) stood at 35.7 mg/kg.

Consider `CCCCCCCCCCCCCCCCN(CCCCCCCCCCCCCCCC)Cc1cccc(C(=N)Nc2ccc(O)cc2)c1` [Example 12], for which the ED50 is 4.9 mg/kg. On the same count and under the same terms, with `CCCCCCCCCCCCCCCCN(CCCCCCCCCCCCCCCC)Cc1cccc(C(=N)Nc2cccc([N+](=O)[O-])c2)c1` [Example 13] the figure was 21.6 mg/kg; with `CCCCCCCCCCCCCCCCN(CCCCCCCCCCCCCCCC)Cc1cccc(C(=N)Nc2ccc(N(C)C)cc2)c1` [Example 14], 8 mg/kg. Still for that read-out and setting: with `CCCCCCCCCCCCCCCCN(CCCCCCCCCCCCCCCC)Cc1cccc(C(=N)Nc2ccc(F)cc2)c1` [Example 15] the figure was 38 mg/kg.

For the compound `CCCCCCCCCCCCCCCCN(CCCCCCCCCCCCCCCC)Cc1cccc(C(=N)Nc2ccc(S(N)(=O)=O)cc2)c1` [Example 16], the ED50 was 7 mg/kg. With `CCCCCCCCCCCCCCCCN(CCCCCCCCCCCCCCCC)Cc1cccc(C(=N)Nc2ncccn2)c1` [Example 17], the ED50 amounted to 12.9 mg/kg.

Consider `CCCCCCCCCCCCCCCCN(CCCCCCCCCCCCCCCC)Cc1cccc(C(=N)Nc2ccc(OCC)cc2)c1` [Example 18], for which the ED50 stood at 17.9 mg/kg.

Consider `CCCCCCCCCCCCCCCCN(CCCCCCCCCCCCCCCC)Cc1cccc(C(=N)Nc2ccc(S(C)(=O)=O)cc2)c1` [Example 19], for which the ED50 turned out to be 8.9 mg/kg. For the compound `CCCCCCCCCCCCCCCCN(CCCCCCCCCCCCCCCC)Cc1cccc(C(=N)NC2CCCC2)c1` [Example 20, m-[N,N-Di(n-hexadecyl)aminomethyl]-N-cyclopentyl-benzamidine], the ED50 was 27.3 mg/kg. On the same count and under the same terms, the result for `CCCCCCCCCCCCCCCCN(CCCCCCCCCCCCCCCC)Cc1cccc(C(=N)Nc2nc(C)cs2)c1` [Example 21] reads 47.5 mg/kg.

For the compound `CCCCCCCCCCCCCCCCN(CCCCCCCCCCCCCCCC)Cc1cccc(C(=N)NCc2ccccc2)c1` [Example 22], the ED50 was 7.8 mg/kg. As for `CCCCCCCCCCCCCCCCN(CCCCCCCCCCCCCCCC)Cc1cccc(C(=N)NN(C)C)c1` [Example 23, m-[N,N-di(n-hexadecyl)aminomethyl]-N-dimethylamino-benzamidine], the ED50 turned out to be 5 mg/kg. As to `CCCCCCCCCCCCCCCCN(CCCCCCCCCCCCCCCC)Cc1cccc(C(=N)NC(C)C)c1` [Example 25, m-[N,N-di(n-hexadecyl)aminomethyl]-N-(2-propyl)-benzamidine], the ED50 was 2.8 mg/kg. For the compound `CCCCCCCCCCCCCCCCN(CCCCCCCCCCCCCCCC)Cc1cccc(C(=N)NCC)c1` [Example 26], the ED50 worked out at 7.6 mg/kg. As to `CCCCCCCCCCCCCCCCN(CCCCCCCCCCCCCCCC)Cc1cccc(C(=N)NC)c1` [Example 27, m-[N,N-di(n-hexadecyl)aminomethyl]-N-methyl-benzamidine], the ED50 worked out at 5.7 mg/kg. `CCCCCCCCCCCCCCCCN(CCCCCCCCCCCCCCCC)Cc1cccc(C(=N)NCC(F)(F)F)c1` [Example 28, m-[N,N-Di(n-hexadecyl)aminomethyl]-N-(2,2,2-trifluoroethyl)-benzamidine]: the ED50 amounted to 3.8 mg/kg. Regarding `CCCCCCCCCCCCCCCCN(CCCCCCCCCCCCCCCC)Cc1cccc(C(=N)NCC2CC2)c1` [Example 29], the ED50 stood at 6.9 mg/kg. Regarding `CCCCCCCCCCCCCCCCN(CCCCCCCCCCCCCCCC)Cc1cccc(C(=N)Nc2ccc(O)c(C)c2)c1` [Example 30], the ED50 came out at 7.7 mg/kg. Regarding `CCCCCCCCCCCCCCCCN(CCCCCCCCCCCCCCCC)Cc1cccc(C(=N)NCCc2cnc[nH]2)c1` [Example 31], the ED50 stood at 11.7 mg/kg. With `CCCCCCCCCCCCCCCCN(CCCCCCCCCCCCCCCC)Cc1cccc(C(=N)Nc2ccc([N+](C)(C)C)cc2)c1` [Example 32], the ED50 stood at 7.4 mg/kg. Regarding `CCCCCCCCCCCCCCCCN(CCCCCCCCCCCCCCCC)Cc1cccc(C(=N)Nc2ccc(O)cc2O)c1` [Example 33], the ED50 was 37.2 mg/kg.

The same experiment, now with this note: Mus musculus, ip, 240 h; as mg. free base (Example 115); i.p. 18-24 h before EMC virus challenge; day 10; read-out: ED50.
With `CCCCCCCCCCCCCCCCN(CCCCCCCCCCCCCCCC)Cc1cccc(C(=N)NCCCS(=O)(=O)O)c1` [Example 3, m-[N,N-Di(n-hexadecyl)aminomethyl]-N-(n-propane)sulfonic acid-benzamidine], the ED50 turned out to be 8 mg/kg.

The same experiment, now with this note: Mus musculus, ip, 240 h; i.p. 18-24 h before s.c. EMC virus challenge; graphical, day 10; read-out: ED50 (dosage level required to obtain a fifty percent survival rate).
`C=CCNC(=N)c1cccc(CN(CCCCCCCCCCCCCCCC)CCCCCCCCCCCCCCCC)c1` [Example 24, m-[N,N-di(n-hexadecyl)aminomethyl]-N-allyl-benzamidine]: the ED50 came to 4.7 mg/kg.

The experiment is the same for the next values; noted with them: mouse, in vivo, ip.
Consider `C=CCNC(=N)c1cccc(CN(CCCCCCCCCCCCCCCC)CCCCCCCCCCCCCCCC)c1` [Example 24, m-[N,N-di(n-hexadecyl)aminomethyl]-N-allyl-benzamidine], for which the “Number of Survivors on Day 0” value was 10, the “Number of Survivors on Day 1” value is given as 10, the “Number of Survivors on Day 2” value was 10 and the “Number of Survivors on Day 3” value came to 10. The “Number of Survivors on Day 4” value is 9 and 10; the “Number of Survivors on Day 5” value was 8 and 6 and 5; the “Number of Survivors on Day 6” value was 8 and 6 and 4.

In general, ED50 refers to the dose that gives a 50% effect, or the effect in half of the subjects.
